Results as given in patent US11883537B2, “Sustained release solid dosage forms for modulating the colonic microbiome” (Axial Therapeutics, Inc., priority 2019, dated 2024).
Like-named read-outs stand apart in the source and are kept apart here.

Legend:
α-synuclein = α-synuclein (Homo sapiens, UniProt P37840); assay: ThT assay, aggregation of α-synuclein; assay type: biochemical
Source text: (§1) A compound that inhibits, or that may inhibit, amyloidogenesis is combined with a bacterial amyloid initiator (e.g., E. coli CsgA), or a host-derived amyloidogenic protein (e.g., α-synuclein) and an amyloid precursor in the presence of Thioflavin T (ThT). Separately, as a control, bacterial amyloid initiator, amyloid precursor, and Thioflavin T are combined in the absence of the suspected amyloidogenesis inhibitor. Thioflavin T fluorescence is monitored over time. […] The Tht assay was used with a cell-free assay to assess the effects of compounds on aggregation of α-synuclein of E. coli CsgA, and to assess the effects of compounds on aggregation of α-synuclein seeded by E. coli CsgA.

[1] = biological target: α-synuclein seeded by E. coli CsgA (Homo sapiens, UniProt P37840); assay type: biochemical; conditions: ThT fluorescence, cell-free
Source text: as §1

E. coli CsgA = E. coli CsgA (Escherichia coli, UniProt P28307); assay: ThT assay, aggregation of E. coli CsgA; assay type: biochemical; conditions: ThT fluorescence, cell-free
Source text: A compound that inhibits, or that may inhibit, amyloidogenesis is combined with a bacterial amyloid initiator (e.g., E. coli CsgA), or a host-derived amyloidogenic protein (e.g., α-synuclein) and an amyloid precursor in the presence of Thioflavin T (ThT). Separately, as a control, bacterial amyloid initiator, amyloid precursor, and Thioflavin T are combined in the absence of the suspected amyloidogenesis inhibitor. Thioflavin T fluorescence is monitored over time. A reduction in the rate of increase in Thioflavin T fluorescence, and/or a reduction in the maximum level of Thioflavin T fluorescence in the sample containing the suspected inhibitor, relative to the control sample, confirms that the suspected amyloidogenesis inhibitor is in fact functioning to inhibit amyloid formation. The Tht assay was used with a cell-free assay to assess the effects of compounds on aggregation of α-synuclein of E. coli CsgA, and to assess the effects of compounds on aggregation of α-synuclein seeded by E. coli CsgA. For a detailed description of the ThT assay, see, e.g., International Publication No. WO/2018/213204, which is incorporated by reference herein in its entirety.

αSyn amyloid formation = conditions: mice; cited from earlier work
[2] = test system: bacterial curli levels in the gastrointestinal tract; assay: Murine models, curli content in feces; assay type: in vivo; conditions: SPF mice or germ free mice mono-colonized with E. coli MC4100; oral
Experimental: The following two mouse models were used to evaluate the in vivo activity of test articles (i.e., sustained release solid dosage forms described herein).
Model 1 was performed in selected strains of specific pathogen free (SPF) mice (e.g. Swiss Webster) that carry curli producing bacteria as part of their native gastrointestinal microbiota.
Model 2 was performed in germ free mice that have no native microbiota. In these mice administration, by oral gavage, of a single strain of curli-producing bacteria (e.g. E. coli MC4100) led to stable bacterial colonization of their gastrointestinal tract. […]
To evaluate the ability of test articles to modify bacterial curli levels in the gastrointestinal tract mice, from either Model 1 or 2, were treated with compound typically administered once daily via oral gavage. […] Where appropriate, test articles were evaluated at multiple dose levels, or at greater or lower dosing frequency. […]
To enable the quantitative assessment of test article impact on gastrointestinal curli levels, fecal samples were collected from these treated mice. […]
Assessment of curli content in feces was achieved through one of four approaches: • 1. Quantitative measurement of messenger RNA (mRNA) levels for csgA using a specific qRT-PCR approach. • 2. Quantitative measurement of curli protein levels using fluorescent dyes that bind to amyloid proteins (e.g. ThT, Congo Red, FSB). • 3. […]

E. coli CsgA, sequence (P28307 21-151): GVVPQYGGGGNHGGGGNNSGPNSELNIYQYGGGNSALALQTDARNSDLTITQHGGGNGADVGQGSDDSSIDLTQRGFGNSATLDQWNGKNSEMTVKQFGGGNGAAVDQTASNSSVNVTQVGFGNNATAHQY

Compound	Inhibition of Aggregation αSyn (α-synuclein; ThT fluorescence, cell-free)	Inhibition of Aggregation CsgA-seeded αSyn [1]	Inhibition of Aggregation CsgA (E. coli CsgA)	motor scores (αSyn amyloid formation)	αSyn amyloid formation in vivo (αSyn amyloid formation)	in vivo activity on fecal curli content [2]	Inhibition of Aggregation αSyn (α-synuclein)
O=C(O[C@@H]1Cc2c(O)cc(O)cc2O[C@@H]1c1cc(O)c(O)c(O)c1)c1cc(O)c(O)c(O)c1 [EGCG, epigallocatechin gallate]	+++ ((+++) is greater than 60% inhibition)	+++ ((+++) is greater than 60% inhibition)	++ ((++) is between 30% to 60% inhibition)	improved motor scores	inhibits or reduces αSyn amyloid formation in mice	reduce fecal levels of csgA mRNA, CsgA protein, and curli protein	
Brc1cccc(-c2cc(-c3ccc4c(c3)OCO4)n[nH]2)c1 [Anle 138b]			− ((−) is between −10% to 10% inhibition)				
O=C(CCc1ccc(O)cc1)c1c(O)cc(O)cc1O [phloretin]	++ ((++) is between 30% to 60% inhibition)	+ ((+) is between 10% to 30% inhibition)	+ ((+) is between 10% to 30% inhibition)				
C=CCc1ccc(O)c(OC)c1 [eugenol]	− ((−) is between −10% to 10% inhibition)	++ ((++) is between 30% to 60% inhibition)	− ((−) is between −10% to 10% inhibition)				
COc1cc(O)ccc1O [methoxy- hydroquinone, methoxy-hydroquinone]	+++ ((+++) is greater than 60% inhibition)	+++ ((+++) is greater than 60% inhibition)	++ ((++) is between 30% to 60% inhibition)				
C=CCc1ccc(OC)c(OC)c1 [4-allyl-1,2-dimethoxy-benzene, 4-allyl-1,2-dimethoxy-benzene]		++ ((++) is between 30% to 60% inhibition)	− − ((− −) is less than −10% inhibition)				− ((−) is between −10% to 10% inhibition)
Cc1ccc(C(C)C)cc1O [carvacrol]	− ((−) is between −10% to 10% inhibition)	− ((−) is between −10% to 10% inhibition)	− − ((− −) is less than −10% inhibition)				
COc1ccccc1O [guaiacol]	− ((−) is between −10% to 10% inhibition)	++ ((++) is between 30% to 60% inhibition)	− ((−) is between −10% to 10% inhibition)				
Oc1ccc(/C=C/c2cc(O)cc(O)c2)cc1 [resveratrol]	+++ ((+++) is greater than 60% inhibition)		+++ ((+++) is greater than 60% inhibition)				
CCCCCCCCCCCCOC(=O)c1cc(O)c(O)c(O)c1 [lauryl gallate]	++ ((++) is between 30% to 60% inhibition)	+ ((+) is between 10% to 30% inhibition)	− ((−) is between −10% to 10% inhibition)				
O=c1c(-c2ccc(O)cc2)coc2cc(O)cc(O)c12 [genistein]	++ ((++) is between 30% to 60% inhibition)						
O=C(/C=C/c1ccc(O)c(O)c1)O[C@H](Cc1ccc(O)c(O)c1)C(=O)O [rosmarinic acid]	+++ ((+++) is greater than 60% inhibition)		++ ((++) is between 30% to 60% inhibition)				
CC(Cc1ccc(O)c(O)c1)C(C)Cc1ccc(O)c(O)c1 (centres unmarked) [NDGA]	++ ((++) is between 30% to 60% inhibition)	++ ((++) is between 30% to 60% inhibition)	+ ((+) is between 10% to 30% inhibition)				
O=c1cc(-c2ccc(O)cc2)oc2cc(O)cc(O)c12 [apigenin]	++ ((++) is between 30% to 60% inhibition)						
O=c1c(O)c(-c2ccc(O)cc2O)oc2cc(O)cc(O)c12 [morin]	+++ ((+++) is greater than 60% inhibition)	+++ ((+++) is greater than 60% inhibition)	+++ ((+++) is greater than 60% inhibition)				
Cc1ccc(C(C)C)c(O)c1 [thymol]	− − ((− −) is less than −10% inhibition)	− ((−) is between −10% to 10% inhibition)	− ((−) is between −10% to 10% inhibition)				
O=c1c(O)c(-c2ccc(O)c(O)c2)oc2cc(O)cc(O)c12 [quercetin]	+++ ((+++) is greater than 60% inhibition)		++ ((++) is between 30% to 60% inhibition)				
C/C=C/c1ccc(O)c(OC)c1 [isoeugenol]	− ((−) is between −10% to 10% inhibition)	++ ((++) is between 30% to 60% inhibition)	− ((−) is between −10% to 10% inhibition)				
COc1cc(/C=C/C(=O)/C=C(O)/C=C/c2ccc(O)c(OC)c2)ccc1O [curcumin]	+++ ((+++) is greater than 60% inhibition)	+++ ((+++) is greater than 60% inhibition)					
O=C(O)c1cc(O)c(O)c(O)c1 [gallic acid]	+++ ((+++) is greater than 60% inhibition)	+++ ((+++) is greater than 60% inhibition)	+++ ((+++) is greater than 60% inhibition)				
